In ChEMBL document CHEMBL1147464, “Synthesis and SAR of bis-statine based peptides as BACE 1 inhibitors” (Bioorg Med Chem Lett, 2004):

These compounds were tested against Beta-secretase 1 (Homo sapiens, UniProt P56817) (assay: Inhibition of human Beta-secretase 1).
Beta-secretase 1, sequence (P56817 whole entry): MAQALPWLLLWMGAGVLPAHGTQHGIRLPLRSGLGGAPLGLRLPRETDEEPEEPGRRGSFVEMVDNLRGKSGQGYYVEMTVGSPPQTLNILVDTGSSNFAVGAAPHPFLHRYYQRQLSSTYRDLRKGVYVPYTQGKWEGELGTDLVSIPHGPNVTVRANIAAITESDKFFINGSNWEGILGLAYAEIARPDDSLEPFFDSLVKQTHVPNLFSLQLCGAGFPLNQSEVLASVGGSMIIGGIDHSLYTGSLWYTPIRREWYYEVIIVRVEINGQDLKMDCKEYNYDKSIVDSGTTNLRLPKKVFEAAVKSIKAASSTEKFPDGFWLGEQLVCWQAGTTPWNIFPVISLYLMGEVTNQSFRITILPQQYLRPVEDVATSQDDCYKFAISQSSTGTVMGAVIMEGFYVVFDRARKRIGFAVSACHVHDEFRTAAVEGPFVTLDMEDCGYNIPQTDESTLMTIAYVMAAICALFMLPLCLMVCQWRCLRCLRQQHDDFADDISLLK

Row | IC50 [nM] | SMILES
1 | 670 | CC(=O)N[C@@H](CC(C)C)C(=O)N[C@@H](Cc1ccccc1)[C@@H](O)CC(=O)N[C@@H](CC1CCCCC1)[C@@H](O)CC(=O)N[C@H](C(=O)NCc1ccc(C(=O)O)cc1)C(C)C (stereo in doubt; 15)
2 | 50 | CC(=O)N[C@@H](CC(C)C)C(=O)N[C@@H](Cc1ccccc1)[C@@H](O)CC(=O)N[C@@H](CC1CCCCC1)[C@@H](O)CC(=O)N[C@H](C(=O)NCc1ccc(C(=O)O)cc1)C(C)C (stereo in doubt; 13)
3 | 650 | CCC(C)C[C@H](NC(=O)C[C@H](O)[C@H](Cc1ccccc1)NC(=O)[C@H](CC(C)C)NC(C)=O)[C@@H](O)CC(=O)N[C@H](C(=O)NCc1ccc(C(=O)O)cc1)C(C)C (some centres not stated)
4 | 5600 | CC(=O)N[C@@H](Cc1ccccc1)C(=O)N[C@@H](Cc1ccccc1)[C@@H](O)CC(=O)N[C@@H](CC1CCCCC1)[C@@H](O)CC(=O)N[C@H](C(=O)NCc1ccc(C(=O)O)cc1)C(C)C
5 | 460 | CCC(C)C[C@H](NC(=O)[C@H](CC(C)C)NC(C)=O)[C@@H](O)CC(=O)NC(CCSC)[C@@H](O)CC(=O)N[C@H](C(=O)NCc1ccc(C(=O)O)cc1)C(C)C (some centres not stated)
6 | 21 | CCC(C)C[C@H](NC(=O)[C@H](CC(C)C)NC(C)=O)[C@@H](O)CC(=O)N[C@@H](Cc1ccccc1)[C@@H](O)CC(=O)N[C@H](C(=O)NCc1ccc(C(=O)O)cc1)C(C)C (some centres not stated)
7 | 34000 | CCC(C)C[C@H](NC(=O)[C@H](CC(C)C)NC(C)=O)[C@@H](O)CC(=O)NC(CC[S+](C)[O-])[C@@H](O)CC(=O)N[C@H](C(=O)NCc1ccc(C(=O)O)cc1)C(C)C (some centres not stated)
8 | > 100000 | CC(C)[C@H](NC(=O)C[C@H](O)[C@H](CC1CCCCC1)NC(=O)C[C@H](O)[C@H](Cc1ccccc1)NC(=O)OC(C)(C)C)C(=O)NCc1ccc(C(=O)O)cc1
9 | 1300 | CC(C)[C@H](NC(=O)C[C@H](O)[C@H](CC1CCCCC1)NC(=O)C[C@H](O)[C@H](Cc1ccccc1)NC(=O)[C@@H]1CCCN1)C(=O)NCc1ccc(C(=O)O)cc1
10 | 9000 | CC(=O)NCC(=O)N[C@@H](Cc1ccccc1)[C@@H](O)CC(=O)N[C@@H](CC1CCCCC1)[C@@H](O)CC(=O)N[C@H](C(=O)NCc1ccc(C(=O)O)cc1)C(C)C
11 | > 100000 | CC(C)[C@H](NC(=O)C[C@H](O)[C@H](CC1CCCCC1)NC(=O)C[C@H](O)[C@@H](N)Cc1ccccc1)C(=O)NCc1ccc(C(=O)O)cc1
12 | 42000 | CC(=O)N[C@@H](CCC(=O)O)C(=O)N[C@@H](Cc1ccccc1)[C@@H](O)CC(=O)N[C@@H](CC1CCCCC1)[C@@H](O)CC(=O)N[C@H](C(=O)NCc1ccc(C(=O)O)cc1)C(C)C
